Values quoted from earlier work as cited in patent US20220062352A1, “COMPOSITIONS FOR THE TREATMENT OF CONDITIONS” (Demata Therapeutics, LLC, priority 2018, published 2022).

Test system: acne vulgaris subjects

CC(=O)N[C@H]1C(O)O[C@H](CO)[C@@H](O)[C@@H]1O (stereo partly drawn) [NAG, N-acetyl-D-glucosamine]
tolerability versus 10% benzoyl peroxide (acne vulgaris subjects): better tolerated by the subjects than 10% benzoyl peroxide
number of acne lesions (over an 8-week period): quickly reduced the number of acne lesions
